Results from patent publication US10308631B2, “Selective anti-cancer compounds” (NATIONAL UNIVERSITY OF SINGAPORE, priority 2015, dated 2019).

What was measured:
Assay in all cases: MTT growth inhibition (GI50)
Format in all cases: cell-based
NUGC3 = settings: Homo sapiens, NUGC-3, NUGC3, gastric cancer, 72 h
Procedure: (§1) Having shown that Compound 1 and its derivatives are effective against HeLa cervical cancer cells and human fibroblast BJ cell lines, Compound 1 was then tested against a panel of thirty different human cancer cells lines derived from gastric, colon, liver, breast, lung and cervical tumours and five different human normal cell lines, which were normal fibroblast cell lines (BJ normal, IMR90, WI38) and retinal pigmented epithelium cell lines (ARPE-19, hTert-immortalized RPE-1).
(§2) The cell lines detailed in Table 2, below, were cultured in the media shown and treated with Compound 1 at a range of different concentrations (from 0.1 μM to 10 μM) for 72 h in triplicate and a mean concentration value for Compound 1 to achieve 50% growth inhibition (GI50) in each cell line was determined by use of the MTT assay.
(§3) The MTT assay was performed by adding thiazolyl blue tetrazolium bromide (MTT reagent, Invitrogen) at a concentration of 0.5 mg/mL to each cell culture and the resulting mixture incubated for 4 h at 37° C. The medium was then removed, and the blue dye remaining in each well was dissolved in DMSO by mixing with a microplate mixer. The absorbance of each well at 540 nm and 660 nm was measured using a microplate reader (Benchmark plus, BIO-RAD). The optical density (OD) values were calculated by subtracting the absorbance at 660 nm from the absorbance at 540 nm. Mean OD values from control cells containing only DMSO treated wells were set as 100%. The resulting GI50 values (in μM) are set out in Table 2 below.

U2OS = settings: Homo sapiens, cancer (others), 72 h
Procedure: as §1, §2, §3

DLD1 = settings: Homo sapiens, DLD-1, DLD1, colon cancer, 72 h
Procedure: as §1, §2, §3

BJ Normal = settings: Homo sapiens, normal cell line, 72 h
Procedure: as §1, §2, §3

NCC59 = settings: Homo sapiens, NCC59, gastric cancer, 72 h
Procedure: as §1, §2, §3

SNU449 = settings: Homo sapiens, SNU-449, SNU449, liver cancer, 72 h
Procedure: as §1, §2, §3

Hep3 = settings: Homo sapiens, Hep3, liver cancer, 72 h
Procedure: as §1, §2, §3

NCC24 = settings: Homo sapiens, NCC24, gastric cancer, 72 h
Procedure: as §1, §2, §3

RPE-1/h-Tert = settings: Homo sapiens, normal cell line, 72 h
Procedure: as §1, §2, §3

ARPE-19 = settings: Homo sapiens, ARPE-19, normal cell line, 72 h
Procedure: as §1, §2, §3

SNU1 = settings: Homo sapiens, SNU1, gastric cancer, 72 h
Procedure: as §1, §2, §3

A549 = settings: Homo sapiens, A549, cancer (others), 72 h
Procedure: as §1, §2, §3

MCF7 = settings: Homo sapiens, MCF7, breast cancer, 72 h
Procedure: as §1, §2, §3

HGC27 = settings: Homo sapiens, HGC-27, HGC27, gastric cancer, 72 h
Procedure: as §1, §2, §3

SNU216 = settings: Homo sapiens, SNU-216, SNU216, gastric cancer, 72 h
Procedure: as §1, §2, §3

SCH = settings: Homo sapiens, gastric cancer, 72 h
Procedure: as §1, §2, §3

SNU1750 = settings: Homo sapiens, SNU1750, gastric cancer, 72 h
Procedure: as §1, §2, §3

IMR90 = settings: Homo sapiens, IMR-90, IMR90, normal cell line, 72 h
Procedure: as §1, §2, §3

SGCC-GC38 = settings: Homo sapiens, SGCC-GC38, gastric cancer, 72 h
Procedure: as §1, §2, §3

WI38 = settings: Homo sapiens, WI-38, WI38, normal cell line, 72 h
Procedure: as §1, §2, §3

IST1 = settings: Homo sapiens, IST1, gastric cancer, 72 h
Procedure: as §1, §2, §3

IM95 = settings: Homo sapiens, IM95, gastric cancer, 72 h
Procedure: as §1, §2, §3

Huh7 = settings: Homo sapiens, Huh-7, Huh7, liver cancer, 72 h
Procedure: as §1, §2, §3

HCT15 = settings: Homo sapiens, HCT-15, HCT15, colon cancer, 72 h
Procedure: as §1, §2, §3

HeLa = settings: Homo sapiens, cancer (others), 72 h
Procedure: as §1, §2, §3

SNU620 = settings: Homo sapiens, SNU620, gastric cancer, 72 h
Procedure: as §1, §2, §3

AZ521 = settings: Homo sapiens, AZ-521, AZ521, gastric cancer, 72 h
Procedure: as §1, §2, §3

NUGC4 = settings: Homo sapiens, NUGC-4, NUGC4, gastric cancer, 72 h
Procedure: as §1, §2, §3

AGS = settings: Homo sapiens, gastric cancer, 72 h
Procedure: as §1, §2, §3

MDA-MB-231 = settings: Homo sapiens, MDA-MB-231, breast cancer, 72 h
Procedure: as §1, §2, §3

NCC19 = settings: Homo sapiens, NCC19, gastric cancer, 72 h
Procedure: as §1, §2, §3

HT29 = settings: Homo sapiens, HT-29, HT29, colon cancer, 72 h
Procedure: as §1, §2, §3

SNU-16 = settings: Homo sapiens, SNU-16, gastric cancer, 72 h
Procedure: as §1, §2, §3

HCT116 = settings: Homo sapiens, HCT-116, HCT116, colon cancer, 72 h
Procedure: as §1, §2, §3

`N#C/C(=C\c1cccc2cnccc12)c1c[nH]c2ccccc12` [Compound 1, (Z)-2-(1H-indol-3-yl)-3-(isoquinolin-5-yl)acrylonitrile] gave a GI50 (NUGC3) of 1 µM, a GI50 (U2OS) of 1.5 µM and a GI50 (DLD1) of 1.2 µM. For the same compound, the GI50 (BJ Normal) was 8.1 µM, the GI50 (NCC59) was 0.9 µM and the GI50 (SNU449) was 2.3 µM. It also gave a GI50 (Hep3) of 3.7 µM, a GI50 (NCC24) of 1.2 µM and a GI50 (RPE-1/h-Tert) of 5.2 µM. It also gave a GI50 (ARPE-19) greater than 10 µM, a GI50 (SNU1) of 0.9 µM and a GI50 (A549) of 2 µM. For the same compound, the GI50 (MCF7) was 1.2 µM, the GI50 (HGC27) was 1.2 µM and the GI50 (SNU216) was 1.9 µM. It also gave a GI50 (SCH) of 1.7 µM, a GI50 (SNU1750) of 0.7 µM and a GI50 (IMR90) of 5.8 µM. It also gave a GI50 (SGCC-GC38) of 1.9 µM, a GI50 (WI38) of 3.4 µM and a GI50 (IST1) of 2.2 µM. It also gave a GI50 (IM95) of 1 µM, a GI50 (Huh7) of 1.2 µM and a GI50 (HCT15) of 0.5 µM. It also gave a GI50 (HeLa) of 1.4 µM, a GI50 (SNU620) of 1 µM and a GI50 (AZ521) of 2.4 µM. It also gave a GI50 (NUGC4) greater than 10 µM, a GI50 (AGS) of 1.1 µM and a GI50 (MDA-MB-231) of 1.1 µM. For the same compound, the GI50 (NCC19) was 4.6 µM, the GI50 (HT29) was 0.9 µM and the GI50 (SNU-16) was 1 µM. The GI50 (HCT116) was 1.8 µM.
